Reference: patent publication US9169247B2, “Tetrahydro-beta-carboline derivatives, synthesis and use thereof” (Southern Research Institute, priority 2009, dated 2015)

Legend:
HT-29 = assay: Growth assay (Cell Titer Glo); format: cell-based, human; settings: Homo sapiens, HT-29, 72 h, HT-29 colon
Protocol: (§1) Compounds 2a-h were tested for tumor cell growth inhibitory activity using the human breast MDA-MB-231 and ZR75-1 tumor cell lines and the colon CACO-2, SW-1116, and HT-29 tumor cell lines.
(§2) All human tumor cell lines were obtained from ATCC and grown under standard cell culture conditions at 37° C. in a humidified atmosphere with 5% CO2. Cells were grown in RPMI 1640 supplemented with 5% fetal bovine serum 2 mM glutamine, 100 units/ml penicillin, 100 units/ml streptomycin, and 0.25 μg/ml amphotericin. Cells were harvested at 70 to 90% confluence with trypsin/EDTA and used immediately Cell count and viability was determined by Trypan blue staining followed by hemocytometry. Only cultures displaying >95% cell viability were used for experiments. HMEC were grown according to the specifications from the supplier (Lonzo).
(§3) Tissue culture microtiter 96-well plates were seeded with cells at a density of 5,000 cells/well. The plates were incubated for 18-24 hours prior to any treatment. All test compounds were solubilized in 100% DMSO and diluted with media to obtain a final DMSO concentration of 0.1%. Cell viability was measured 72 hours after treatment by the Cell Titer Glo Assay (Promega), which is a luminescent assay that is an indicator of live cells as a function of metabolic activity and ATP content. The assay was performed according to manufacturer's specifications. Luminescence was measured by a Perkin Elmer Victor® multi-label plate reader.^6
(§4) Dose response curves were analyzed using Prism™ 4 software (GraphPad) to calculate IC50 values using a four parameter logistic equation.

[1] = test system: human MDA-MB-231 breast tumor cells; assay: Growth assay (Cell Titer Glo); format: cell-based; settings: Homo sapiens, MDA-MB-231, 72 h, MDA-MB-231 breast; 72 h; Tables 3-5; read-out: IC50 value, μM, growth
Protocol: as §2, §3, §4

ZR75-1 = assay: Growth assay (Cell Titer Glo); format: cell-based; settings: Homo sapiens, ZR-75-1; ZR75-1 breast; 72 h
Protocol: as §1, §2, §3, §4

CACO-2 = assay: Growth assay (Cell Titer Glo); format: cell-based; settings: Homo sapiens; CACO-2 colon; 72 h
Protocol: as §1, §2, §3, §4

SW1116 = assay: Growth assay (Cell Titer Glo); format: cell-based; settings: Homo sapiens, SW 1116; SW1116 colon; 72 h
Protocol: as §1, §2, §3, §4

| IC50 (HT-29) [µM] | IC50 [1] [µM] | IC50 (CACO-2) [µM] | IC50 (SW1116) [µM] | melting point [°C] | Compound | IC50 (ZR75-1) [µM] |
| --- | --- | --- | --- | --- | --- | --- |
| 1.16 | 0.02 | 1.6 | 4.3 |  | COC(=O)[C@H]1Cc2c([nH]c3ccccc23)[C@H](c2ccccc2Br)N1C(=O)CCl [Compound 2b, Methyl (1S,3R)-1-(2-bromophenyl)-2-(2-chloroacetyl)-2,3,4,9-tetrahydro-1H-β-carboline-3-carboxylate] | 1.1 |
| 0.77 | 0.02 | 0.1 | 2.72 |  | COC(=O)[C@@H]1Cc2c([nH]c3ccccc23)[C@H](c2ccccc2Br)N1C(=O)CCl [Compound 2c, Methyl (1S,3S)-1-(2-bromophenyl)-2-(2-chloroacetyl)-2,3,4,9-tetrahydro-1H-β-carboline-3-carboxylate] | 1.1 |
| 3.2 | 0.25 | 0.55 | 1.05 |  | COC(=O)[C@@H]1Cc2c([nH]c3ccccc23)[C@@H](c2ccccc2Br)N1C(=O)CCl [Compound 2d, Methyl (1R,3S)-1-(2-bromophenyl)-2-(2-chloroacetyl)-2,3,4,9-tetrahydro-1H-β-carboline-3-carboxylate] | 3.61 |
| 3.38 | 4.25 | 3.5 | 7.2 | 108 to 111 | COC(=O)[C@H]1Cc2c([nH]c3ccccc23)[C@@H](c2cc(OC)ccc2OC)N1C(=O)CCl [Compound 2e, Methyl (1R,3R)-1-(2,5-dimethoxyphenyl)-2-(2-chloroacetyl)-2,3,4,9-tetrahydro-1H-β-carboline-3-carboxylate] | 5.7 |
| 6.12 | 1.6 | 3.04 | 3.71 | 105 to 108 | COC(=O)[C@@H]1Cc2c([nH]c3ccccc23)[C@H](c2cc(OC)ccc2OC)N1C(=O)CCl [Compound 2g, Methyl (1S,3S)-1-(2,5-dimethoxyphenyl)-2-(2-chloroacetyl)-2,3,4,9-tetrahydro-1H-β-carboline-3-carboxylate] | 4.13 |
| 5.59 | 0.04 | 0.29 | > 10 | 228 to 230 | COC(=O)C1Cc2c([nH]c3ccccc23)C(c2cc(OC)ccc2OC)N1C(=O)CCl [Compound 2h, Methyl (1R,3S)-1-(2,5-dimethoxyphenyl)-2-(2-chloroacetyl)-2,3,4,9-tetrahydro-4H-β-carboline-3-carboxylate] | 3.95 |
